According to patent US6770673B1, “Therapeutic uses of arglabin in combination with other chemotherapy agents” (priority 1997, dated 2004):

How the values were obtained:
[1] = tested on: Alveolar Cancer of the liver; experiment: Inhibition of tumor growth in implanted tumors; assay type: in vivo, mice and rats
Sarcoma-45 = experiment: Inhibition of tumor growth in implanted tumors; assay type: in vivo, rats
Worker's carcinosarcoma = experiment: Inhibition of tumor growth in implanted tumors; assay type: in vivo, mice and rats
Geren's carcinosarcoma = experiment: Inhibition of tumor growth in implanted tumors; assay type: in vivo, mice and rats
M-1 Sarcoma = experiment: Inhibition of tumor growth in implanted tumors; assay type: in vivo, mice and rats
Pliss lymphosarcoma = experiment: Inhibition of tumor growth in implanted tumors; assay type: in vivo, rats
Leucemia P-388 = experiment: Implanted leukemia, inhibition / survival; assay type: in vivo, mice and rats
Sarcoma-37 = experiment: Inhibition of tumor growth in implanted tumors; assay type: in vivo, mice and rats; details: dose 2 mg/kg
[2] = tested on: Sarcoma-45 resistant to sarcolysin; experiment: Inhibition of growth of resistant tumour strains; assay type: in vivo, rats; details: dose 30 mg/kg
L-1210 = experiment: Implanted leukemia, survival; assay type: in vivo, mice and rats; details: dose 30 mg/kg
[3] = tested on: Pliss Lymphosarcoma resistant to prospidine; experiment: Inhibition of growth of resistant tumour strains; duration of life and metastasis; assay type: in vivo, rats; details: dose 30 mg/kg
immune system = experiment: Indices of patients' immunity, rozette forming and phagocytosis methods (Table X); assay type: in vivo, human
Description: The indices of immune system were determined using rozette forming and phagocytosis methods. […] Eleven indices of cellular and humoral immunity were measured from each patient in order to evaluate immune status. The following indices were determined on 0.05 ml of peripheral blood: absolute and relative amount of T- and B-lymphocytes, amount of non-differentiated “zero” cells, adhesion and phagocyte activity of neutrophils, hemogram, level of serum immunoglobulins. Indices were determined before treatment, on days 2, 5 and 14 of treatment, and after treatment.
Mean values of immunological indices were evaluated with regression analysis. Functional conditions of the immune system were estimated using integral indices such as a mean intensity (correlation) expressed in relative units.

PC-1 = experiment: Inhibition of tumor growth in implanted tumors; assay type: in vivo, mice and rats; details: dose 30 mg/kg
[4] = tested on: Pliss Lymphosarcoma resistant to rubidomycin; experiment: Inhibition of growth of resistant tumour strains; assay type: in vivo, rats; details: dose 30 mg/kg
[5] = tested on: Pliss Lymphosarcoma resistant to leucoeffdine; experiment: Inhibition of growth of resistant tumour strains; tumor disappearance; assay type: in vivo, rats; details: leukofedin resistant Pliss' lymphosarcoma, collateral sensitivity
[6] = tested on: Sarcoma-45 resistant to 5-fluorouracil; experiment: Inhibition of growth of resistant tumour strains; assay type: in vivo, rats; details: dose 50 mg/kg

COc1cc2c(c(OC)c1OC)-c1ccc(OC)c(=O)cc1[C@@H](NC(C)=O)CC2 [Colchicine, colchicine, reference compound]
Inhibition of Tumour Growth, % - Alveolar Cancer of the liver ([1]; dose 2 mg/kg): 29.1% | Inhibition of Tumour Growth, % - Sarcoma-45 (Sarcoma-45; dose 2 mg/kg): 23.4% | Inhibition of Tumour Growth, % - Worker's carcinosarcoma (Worker's carcinosarcoma; dose 2 mg/kg): 30.1% | Inhibition of Tumour Growth, % - Geren's carcinosarcoma (Geren's carcinosarcoma; dose 2 mg/kg): 32.4% | Inhibition of Tumour Growth, % - M-1 Sarcoma (M-1 Sarcoma; dose 2 mg/kg): 14.9% | Inhibition of Tumour Growth, % - Pliss lymphosarcoma (Pliss lymphosarcoma; dose 2 mg/kg): 54.4% | Inhibition of Tumour Growth, % - Leucemia P-388 PALT (Leucemia P-388; dose 2 mg/kg): 31.2% | Inhibition of Tumour Growth, % - Sarcoma-37 (Sarcoma-37): 36.7%

C=C1C(=O)O[C@@H]2[C@H]3C(C)=CC[C@@]34O[C@@]4(C)CC[C@@H]12 [Arglabin (1), 1(R), 10(S)-epoxy-5(S), 6(S), 7(S)-guaia-3(4), 11(13)-diene-6,12-olide]
Inhibition of Tumour Growth, % - Alveolar Cancer of the liver ([1]; dose 30 mg/kg): 32.1% | Inhibition of Tumour Strains Growth, % - Resistant Forms - Sarcoma-45 to sarcolysin [2]: 59.7% | Inhibition of Tumour Growth, % - Sarcoma-45 (Sarcoma-45; dose 30 mg/kg): 23.0% | L-1210 - increase in survival (L-1210): +34.1% | Inhibition of Tumour Growth, % - Worker's carcinosarcoma (Worker's carcinosarcoma; dose 30 mg/kg): 41.1% | Inhibition of Tumour Strains Growth, % - Resistant Forms - Pliss Lymphosarcoma to prospidine [3]: 31.0% | Adhesion, N/ph (immune system; human, in vivo): 42.40 ± 1.72 | Non differentiated lymphocytes, % (immune system; human, in vivo): 26.00 ± 2.21% | T-lymphocytes, % (immune system; human, in vivo): 52.00 ± 1.42% | Eosinophil (immune system; patients, hemogram, after treatment (before treatment 2.72 ± 0.71)): 3.35 ± 1.30 | Neutrophils, % (immune system; patients, hemogram, after treatment (before treatment 4.72 ± 0.91)): 5.45 ± 0.79% | Monocytes (immune system; patients, hemogram, after treatment (before treatment 5.28 ± 2.48)): 4.45 ± 0.44 | Lymphocytes (immune system; patients, hemogram, after treatment (before treatment 25.52 ± 2.02)): 23.15 ± 1.7 | Segmentation nucleus (immune system; patients, hemogram, after treatment (before treatment 61.68 ± 45.0)): 63.05 ± 1.79 | B-lymphocytes, absolute (immune system; patients, peripheral blood, after treatment (before treatment 0.29 ± 0.05)): 0.45 ± 0.07 | T-lymphocytes, absolute (immune system; patients, peripheral blood, after treatment (before treatment 0.72 ± 0.08)): 1.14 ± 0.17 | D-phag, abs (immune system; patients, peripheral blood, after treatment (before treatment 1.69 ± 0.26)): 2.32 ± 0.19 | Leukocytes, 10^9/l (immune system; patients, peripheral blood, after treatment (before treatment 5.97 ± 0.60)): 9.14 ± 0.61 10^9/l | T suppressor, % (immune system; patients, peripheral blood, after treatment (before treatment 10.48 ± 1.60)): 10.50 ± 0.95% | B-lymphocytes, % (immune system; patients, peripheral blood, after treatment (before treatment 19.12 ± 1.02)): 18.50 ± 10.0% | T helper cells, % (immune system; patients, peripheral blood, after treatment (before treatment 39.12 ± 1.25)): 45.30 ± 1.26% | D-phag., % (immune system; patients, peripheral blood, after treatment (before treatment 41.36 ± 0.95)): 48.1 ± 0.93% | Immunoglobulins M (immune system; patients, serum, after treatment (before treatment 1.36 ± 0.03)): 1.53 ± 0.03 g/L | Immunoglobulins A (immune system; patients, serum, after treatment (before treatment 1.48 ± 0.02)): 1.97 ± 0.08 g/L | Immunoglobulins G (immune system; patients, serum, after treatment (before treatment 14.33 ± 0.43)): 17.91 ± 0.41 g/L | Inhibition of Tumour Growth, % - Geren's carcinosarcoma (Geren's carcinosarcoma; dose 30 mg/kg): 48.0% | Inhibition of Tumour Growth, % - PC-1 (PC-1): 32.1% | Inhibition of Tumour Growth, % - M-1 Sarcoma (M-1 Sarcoma; dose 30 mg/kg): 55.6% | Inhibition of Tumour Growth, % - Pliss lymphosarcoma (Pliss lymphosarcoma; dose 30 mg/kg): 57.6% | Leucemia P-388 PALT - increase in survival (Leucemia P-388; dose 30 mg/kg): +43.0% | Inhibition of Tumour Strains Growth, % - Resistant Forms - Pliss Lymphosarcoma to rubidomycin [4]: 44.1%

NC(Cc1ccc(N(CCCl)CCCl)cc1)C(=O)O (centres unmarked) [sarcolysin, reference compound]
rats with complete disappearance of the tumor [5]: 60%

CN(C)CC1C(=O)OC2C1CCC1(C)OC13CC1OC1(C)C23 (centres unmarked) [Dimethylaminoepoxyarglabin (15b), dimethylaminoepoxyarglabin]
Inhibition of Tumour Growth, % - Alveolar Cancer of the liver ([1]; dose 50 mg/kg): 38.0% | Inhibition of Tumour Growth, % - Sarcoma-45 (Sarcoma-45; dose 50 mg/kg): 58.1% | Inhibition of Tumour Strains Growth, % - Resistant Forms - Sarcoma-45 to 5-fluorouracil [6]: 11.2% | Inhibition of Tumour Growth, % - Worker's carcinosarcoma (Worker's carcinosarcoma; dose 50 mg/kg): 43.1% | Inhibition of Tumour Growth, % - Geren's carcinosarcoma (Geren's carcinosarcoma; dose 50 mg/kg): 31.4% | Inhibition of Tumour Growth, % - Pliss lymphosarcoma (Pliss lymphosarcoma; dose 50 mg/kg): 64.6% | Inhibition of Tumour Growth, % - Leucemia P-388 PALT (Leucemia P-388; dose 50 mg/kg): 51.0%

CC1=CCC23OC2(C)CCC2C(C)C(=O)OC2C13 (centres unmarked) [11,13-dihydroarglabin (16), 11,13 dihydroarglabin]
Inhibition of Tumour Growth, % - Alveolar Cancer of the liver ([1]; dose 30 mg/kg): 68.7% | Inhibition of Tumour Growth, % - Sarcoma-45 (Sarcoma-45; dose 30 mg/kg): 64.1% | Inhibition of Tumour Growth, % - Worker's carcinosarcoma (Worker's carcinosarcoma; dose 30 mg/kg): 46.4% | Inhibition of Tumour Growth, % - Geren's carcinosarcoma (Geren's carcinosarcoma; dose 30 mg/kg): 84.4% | Inhibition of Tumour Growth, % - M-1 Sarcoma (M-1 Sarcoma; dose 30 mg/kg): 65.5% | Inhibition of Tumour Growth, % - Pliss lymphosarcoma (Pliss lymphosarcoma; dose 30 mg/kg): 68.0%
